Results taken from patent publication US20250204541A1, “GAS PHASE TREATMENT OF PRODUCE” (priority 2022, published 2025).

Legend:
Format in all cases: in vivo
[1] = system: Penicillium digitatum (Pd); assay: Antifungal activity of vapor against Penicillium digitatum in wounded, infected mandarins; conditions: vapor of 62.5 μL AITC and/or 125 μL of all other compounds for 30 minutes, assessed after 6 days
[2] = system: Colletotrichum gloeosporioides (Cg); assay: Antifungal activity of vapor against Colletotrichum gloeosporioides in avocados; conditions: Example 9, vapor of 3 mL in a Petri dish for 72 hours, 7 days of incubation
Procedure: Example 7. The antifungal activity of AITC and DADS vapor against Colletotrichum gloeosporioides (Cg) was tested in avocados. All test pieces were wounded by removing the stem and infected by dispensing 1000 Cg spores suspended in 10 μL of water into the wound. The test groups consisted of avocados that were: untreated and uninfected; untreated and infected; treated by dipping in a solution of 0.1 g/L of prochloraz; exposed to the vapor of 3 mL of AITC disposed in a Petri dish; and exposed to the vapor of 3 mL of DADS disposed in a Petri dish. FIG. 9 quantifies the infection results. AITC vapor reduced the incidence of Cg mold by 97% compared to the untreated test group and 70% compared to the prochloraz treated test group. DADS vapor reduced the incidence of Cg mold by 60% compared to the untreated test group.
Example 8. The antifungal activity of a range of DADS vapor exposure times was tested against Cg in avocados. All test pieces were wounded by removing the stem and infected by dispensing 1000 Cg spores suspended in 10 μL of water into the wound. The test groups consisted of avocados that were: infected and untreated; and exposed to the vapor of 3 mL of DADS in a Petri dish for 24 hours, 48 hours, and 72 hours. FIG. 10 quantifies the infection results. Test group exposed to DADS vapor at all exposure times reduced the incidence of Cg mold compared to the untreated test group. A 24 hour DADS exposure reduced the incidence of Cg mold by 8%. A 48 hour DADS exposure reduced the incidence of Cg mold by 25%. A 72 hour DADS exposure reduced the incidence of Cg mold by 57%.
Example 9. The antifungal activity of a range of AITC and carvacrol vapor exposure times was tested against Cg in avocados. To measure the effect of the various treatments on ripening, durometer shore was taken after 7 days of incubation at ambient temperature and high humidity. All samples were wounded by removing the stem and infected by dispensing 1000 Cg spores suspended in 10 μL of water in the wound. The test groups consisted of avocados that were: infected and left untreated on the benchtop; infected and left untreated under a fume hood; exposed to the vapor of 3 mL of AITC in a Petri dish for 24 hours, 48 hours, and 72 hours; and exposed to the vapor of 3 mL of carvacrol in a Petri dish for 72 hours. FIG. 11 quantifies the infection results. […] All exposure times to AITC vapor reduced the incidence of Cg mold compared to the untreated samples. A 24 hour AITC exposure reduced the incidence of Cg mold by 90%. A 48 hour AITC exposure reduced the incidence of Cg mold by 97%. A 72 hour AITC exposure reduced the incidence of Cg mold by 83%. […]
Example 21. The antifungal activity of avocados exposed to AITC vapor and prochloraz was tested against Cg in avocados. To measure the effect of the various treatments on ripening, durometer shore was taken after 5 days of incubation at ambient temperature (about 20° C. to about 25° C.) and high humidity (about 88% relative humidity to about 93% relative humidity). All samples were wounded by removing the stem and infected by dispensing 1000 Cg spores suspended in 10 μL of water in the wound. Exposure to vapor was done by placing the avocados in an airtight container, dispensing AITC onto Whatman filter paper discs, suspending the discs in front of a battery-powered fan, closing the container and incubating the avocados for 30 minutes. After vapor exposure, the avocados were left at ambient temperature, high humidity, and assessed for Cg mold on day 5. Treatment groups consisted of avocados that were: exposed for 30 minutes to the vapor of 125 μL of AITC disposed on a filter paper disc; dipped in a solution of 0.1 g/L of prochloraz and placed to dry on a rack in front of a fan for 30 min; infected and left untreated; and uninfected and untreated. […] To prepare the 0.1 g/L of prochloraz, 10 mg of prochloraz was mixed with 10 mL of ethanol and 90 mL of water. […] A 24 hour AITC exposure reduced the incidence of Cg mold by 90%. […]

avocados = assay: Durometer shore (ripening/firmness) of treated avocados; conditions: Example 21; Cg-infected avocados; after 5 days; AITC 125 μL vapor 30 minutes, prochloraz 0.1 g/L dip
Procedure: Example 9. The antifungal activity of a range of AITC and carvacrol vapor exposure times was tested against Cg in avocados. To measure the effect of the various treatments on ripening, durometer shore was taken after 7 days of incubation at ambient temperature and high humidity. All samples were wounded by removing the stem and infected by dispensing 1000 Cg spores suspended in 10 μL of water in the wound. The test groups consisted of avocados that were: infected and left untreated on the benchtop; infected and left untreated under a fume hood; exposed to the vapor of 3 mL of AITC in a Petri dish for 24 hours, 48 hours, and 72 hours; and exposed to the vapor of 3 mL of carvacrol in a Petri dish for 72 hours. FIG. 11 quantifies the infection results. […] All exposure times to AITC vapor reduced the incidence of Cg mold compared to the untreated samples. A 24 hour AITC exposure reduced the incidence of Cg mold by 90%. A 48 hour AITC exposure reduced the incidence of Cg mold by 97%. A 72 hour AITC exposure reduced the incidence of Cg mold by 83%.
Example 10. The antifungal activity of a range of AITC vapor exposure times were tested against Cg in avocados. To measure the effect of the various treatments on ripening, durometer shore was taken after 6 days of incubation at ambient temperature and high humidity. All samples were wounded by removing the stem and infected by dispensing 1000 Cg spores suspended in 10 μL of water in each wound. The test groups consisted of avocados that were: infected and left untreated on the benchtop; infected and left untreated in a fume hood; exposed to the vapor of 3 mL of AITC in a Petri dish for 24 hours, 48 hours, and 72 hours. FIG. 13 quantifies the infection results. […] All exposure times to AITC vapor reduced the incidence of Cg mold compared to the untreated samples.
Example 21. The antifungal activity of avocados exposed to AITC vapor and prochloraz was tested against Cg in avocados. To measure the effect of the various treatments on ripening, durometer shore was taken after 5 days of incubation at ambient temperature (about 20° C. to about 25° C.) and high humidity (about 88% relative humidity to about 93% relative humidity). All samples were wounded by removing the stem and infected by dispensing 1000 Cg spores suspended in 10 μL of water in the wound. Exposure to vapor was done by placing the avocados in an airtight container, dispensing AITC onto Whatman filter paper discs, suspending the discs in front of a battery-powered fan, closing the container and incubating the avocados for 30 minutes. After vapor exposure, the avocados were left at ambient temperature, high humidity, and assessed for Cg mold on day 5. Treatment groups consisted of avocados that were: exposed for 30 minutes to the vapor of 125 μL of AITC disposed on a filter paper disc; dipped in a solution of 0.1 g/L of prochloraz and placed to dry on a rack in front of a fan for 30 min; infected and left untreated; and uninfected and untreated. […] To prepare the 0.1 g/L of prochloraz, 10 mg of prochloraz was mixed with 10 mL of ethanol and 90 mL of water. […] A 24 hour AITC exposure reduced the incidence of Cg mold by 90%. […] The mean shore value for the untreated avocados was 28.8 (standard deviation (SD)=10.8). The mean shore value for the infected avocados was 47.3 (SD=11.8). The mean shore value of the positive control, prochloraz treated avocados was 44.3 (SD=14.7). The mean shore value of the AITC treated avocados was 61.1 (SD=10.5).
Durometer Shore Measurement: A Fruit Hardness Tester—HPE III Fff w/Sphere Ø 5.0 mm Test Anvil is used for the measurements. The Operating Procedure is as follows: • 1) At room temperature and 1 atm pressure, switch on the measuring device and press the hull or sleeve against the specimen so that the contact surface of the pressure plate rests on the fruit. […]

`C=CCc1ccc(O)c(OC)c1` [eugenol] was tested, and the “performance against Pd compared with untreated samples” value [1] was “performed better than the untreated samples”.
For `Cc1ccc(C(C)C)cc1O` [carvacrol], the “reduction of the incidence of Cg mold” value [2] was “did not reduce the incidence of Cg mold”.
`CCCN(CCOc1c(Cl)cc(Cl)cc1Cl)C(=O)n1ccnc1` [prochloraz, reference compound] was tested, and the mean shore value (avocados) was 44.3 (SD=14.7) shore.
